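Compound exposure: 48 hours, 5 concentrations, 96-well plates. At the GI50, growth is halved.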 Active and inactive are the calls of the source. No stated cut-off is given here; in the data, active = GI50 up to about 1.1 µM and inactive = higher. *1 amine or outer side, *2 acyl side, *3 side chain or, on linkers, in order; H or OH if unused. Where a SMILES comes first, the peptide text is derived from it. Bridges are numbered along the chain shown (N, C = ends). Roman numbers before positions name the chains, in order. [ ]: non-standard residue; d: D form. Actinocin(9to1) = Cc1c2oc3c(C)ccc(C(=O)[*:1])c3nc-2c(C(=O)[*:2])c(N)c1=O; NMeV = CN[CH](C(=O)O)C(C)C; Sar = CNCC(=O)O
Experiments:
Assay in all cases: DTP human tumour cell line panel, 48 h
786-0 = tested on: 786-0
U-251 = tested on: U-251
HCC 2998 = tested on: HCC 2998
RXF 393 = tested on: RXF 393
K562 = tested on: K562
M14 = tested on: M14
LXFL 529 = tested on: LXFL 529
HOP-62 = tested on: HOP-62
NCI-H226 = tested on: NCI-H226
MDA-MB-435 = tested on: MDA-MB-435
SR = tested on: SR
Hs-578T = tested on: Hs-578T
T47D = tested on: T47D
PC-3 = tested on: PC-3
MCF7 = tested on: MCF7
BT-549 = tested on: BT-549
MDA-MB-231 = tested on: MDA-MB-231
MDA-N = tested on: MDA-N
DU-145 = tested on: DU-145
NCI/ADR-RES = tested on: NCI/ADR-RES

Row | Compound | GI50 (786-0) | GI50 (U-251) | GI50 (HCC 2998) | GI50 (RXF 393) | GI50 (K562) | GI50 (M14) | GI50 (LXFL 529) | GI50 (HOP-62) | GI50 (NCI-H226) | GI50 (MDA-MB-435) | GI50 (SR) | GI50 (Hs-578T) | GI50 (T47D) | GI50 (PC-3) | GI50 (MCF7) | GI50 (BT-549) | GI50 (MDA-MB-231) | GI50 (MDA-N) | GI50 (DU-145) | GI50 (NCI/ADR-RES)
1 | COc1ccc2c(c1)[n+]([O-])c(C(C)=O)c(C)[n+]2[O-] | > 100 µM (inactive) | > 100 µM (inactive) | > 100 µM (inactive) | > 100 µM (inactive) | > 100 µM (inactive) | > 100 µM (inactive) | > 100 µM (inactive) | > 100 µM (inactive) | > 100 µM (inactive) | – | – | – | – | – | – | – | – | – | – | –
2 | O=C(CCCN1CCC(C(O)c2ccc(F)cc2)CC1)c1ccc(F)cc1 (stereo unspecified) | 44.9 µM (inactive) | 55.5 µM (inactive) | 41.1 µM (inactive) | 41.1 µM (inactive) | 39.7 µM (inactive) | 51.6 µM (inactive) | – | 62.8 µM (inactive) | 53.3 µM (inactive) | 57 µM (inactive) | 69.8 µM (inactive) | 46.1 µM (inactive) | 56.1 µM (inactive) | 47.1 µM (inactive) | 64.9 µM (inactive) | 45.4 µM (inactive) | 39.8 µM (inactive) | 61 µM (inactive) | 61.9 µM (inactive) | 66.5 µM (inactive)
3 | CO/C(=N\N=Cc1ccccc1)c1ccncc1 | – | > 100 µM (inactive) | > 100 µM (inactive) | – | > 100 µM (inactive) | > 100 µM (inactive) | > 100 µM (inactive) | > 100 µM (inactive) | 12.6 µM (inactive) | – | > 100 µM (inactive) | – | – | – | – | – | – | – | – | –
4 | CCCCCCC1NN(C(C)=O)C(CCCCCC)NN1C(C)=O (stereo unspecified) | > 100 µM (inactive) | > 100 µM (inactive) | > 100 µM (inactive) | – | 32 µM (inactive) | > 100 µM (inactive) | > 100 µM (inactive) | > 100 µM (inactive) | > 100 µM (inactive) | – | – | – | – | – | – | – | – | – | – | –
5 | Clc1ccc(OC2CCO2)cc1Cl (stereo unspecified) | 85.9 µM (inactive) | 88.3 µM (inactive) | > 100 µM (inactive) | – | 40.6 µM (inactive) | > 100 µM (inactive) | 70.5 µM (inactive) | 78.9 µM (inactive) | 52.8 µM (inactive) | – | – | – | – | – | – | – | – | – | – | –
6 | COc1ccc2c(c1)OC[C@@H]1c3cc(O)c(OCc4ccccc4)cc3O[C@H]21 | 37.3 µM (inactive) | 23.7 µM (inactive) | 36.2 µM (inactive) | 25.9 µM (inactive) | 31.8 µM (inactive) | 27.9 µM (inactive) | 18.7 µM (inactive) | 48 µM (inactive) | 27.3 µM (inactive) | – | – | – | – | – | – | – | – | – | – | –
7 | CC1(C)OC2OC(COC(=O)C(c3ccccc3)c3ccccc3)C3OC(C)(C)OC3C2O1 (stereo unspecified) | 24.7 µM (inactive) | > 10 µM (inactive) | > 10 µM (inactive) | 12.3 µM (inactive) | 4.29 µM (inactive) | 93.1 µM (inactive) | > 10 µM (inactive) | > 10 µM (inactive) | > 10 µM (inactive) | – | > 10 µM (inactive) | – | – | – | – | – | – | – | – | –
8 | COc1ccc2nc3cc(Cl)ccc3c(NCCCCCC(=O)NC(COc3ccc4ccc5cccnc5c4n3)COc3ccc4ccc5cccnc5c4n3)c2c1 | 15.4 µM (inactive) | 13.8 µM (inactive) | 14.9 µM (inactive) | 19.8 µM (inactive) | 13.5 µM (inactive) | 26.7 µM (inactive) | – | > 100 µM (inactive) | 20.8 µM (inactive) | 38.6 µM (inactive) | 3.14 µM (inactive) | 29 µM (inactive) | 20.1 µM (inactive) | 15.2 µM (inactive) | 2.23 µM (inactive) | 1.67 µM (inactive) | 19.4 µM (inactive) | 23 µM (inactive) | 11.5 µM (inactive) | 26.9 µM (inactive)
9 | COC1OC2COC1(OC)C1OC(C)(C)OC21 (stereo unspecified) | > 100 µM (inactive) | > 100 µM (inactive) | > 100 µM (inactive) | > 100 µM (inactive) | > 100 µM (inactive) | > 100 µM (inactive) | – | > 100 µM (inactive) | > 100 µM (inactive) | > 100 µM (inactive) | > 100 µM (inactive) | > 100 µM (inactive) | > 100 µM (inactive) | > 100 µM (inactive) | > 100 µM (inactive) | > 100 µM (inactive) | > 100 µM (inactive) | > 100 µM (inactive) | > 100 µM (inactive) | > 100 µM (inactive)
10 | Cn1nc(-c2ccccc2)c(C(=O)/C=C/c2ccccc2)c(N2CCCC2)c1=O | 13.2 µM (inactive) | 12.9 µM (inactive) | – | 6.59 µM (inactive) | 7.14 µM (inactive) | 15.7 µM (inactive) | 11.9 µM (inactive) | 11.9 µM (inactive) | – | – | – | – | – | – | – | – | – | – | – | –
11 | O=Cc1cc(O)ccc1Br | 22.6 µM (inactive) | 3.74 µM (inactive) | 11.8 µM (inactive) | 27.4 µM (inactive) | 2.86 µM (inactive) | 5.45 µM (inactive) | – | 9.71 µM (inactive) | 28.8 µM (inactive) | 2.5 µM (inactive) | 2.63 µM (inactive) | 9.31 µM (inactive) | 42.1 µM (inactive) | 13.2 µM (inactive) | 4.41 µM (inactive) | 11.6 µM (inactive) | 36.1 µM (inactive) | 3.1 µM (inactive) | 44.7 µM (inactive) | 12.1 µM (inactive)
12 | CCN(CC)CCn1nc2c3c(c(NCCN)ccc31)Sc1cc(O)ccc1-2 | 0.741 µM (active) | 0.254 µM (active) | – | 1.14 µM (inactive) | 0.314 µM (active) | 0.455 µM (active) | 0.178 µM (active) | 0.416 µM (active) | – | – | 0.201 µM (active) | – | – | – | – | – | – | – | – | –
13 | O=C(NC1CCCCC1)NC12CC3CC(CC(F)(C3)C1)C2 | > 100 µM (inactive) | > 100 µM (inactive) | > 100 µM (inactive) | > 100 µM (inactive) | > 100 µM (inactive) | > 100 µM (inactive) | > 100 µM (inactive) | > 100 µM (inactive) | – | – | – | – | – | – | – | – | – | – | – | –
14 | COc1cccc(/C=C2/S/C(=N/Nc3nc(C)c(C(C)=O)s3)NC2=O)c1O | 27.8 µM (inactive) | 18.5 µM (inactive) | 35.6 µM (inactive) | 28.8 µM (inactive) | 31.1 µM (inactive) | 32.8 µM (inactive) | – | 51.6 µM (inactive) | 37.7 µM (inactive) | 30.5 µM (inactive) | 27.7 µM (inactive) | 57.8 µM (inactive) | 23.3 µM (inactive) | 25.9 µM (inactive) | 32.6 µM (inactive) | 28.9 µM (inactive) | 18.9 µM (inactive) | 31.7 µM (inactive) | 34.4 µM (inactive) | 33.8 µM (inactive)
15 | CN(c1ccc(C(=O)c2ccc(N(C)S(C)(=O)=O)cc2)cc1)S(C)(=O)=O | > 100 µM (inactive) | > 100 µM (inactive) | – | – | 49.3 µM (inactive) | – | 42.4 µM (inactive) | – | > 100 µM (inactive) | – | 59.8 µM (inactive) | – | – | – | – | – | – | – | – | –
16 | c1ccc(C2N3CCCCC3[C@@H]3c4[nH]c5ccccc5c4CCN23)cc1 (stereo partly specified) | > 100 µM (inactive) | > 100 µM (inactive) | 98.9 µM (inactive) | 47.3 µM (inactive) | 41.4 µM (inactive) | > 100 µM (inactive) | 85.3 µM (inactive) | > 100 µM (inactive) | – | – | – | – | – | – | – | – | – | – | – | –
17 | CCCCCCCCCCC(C)CCCCCCC(=O)OCC(COP(=O)([O-])OCC[N+](C)(C)C)OC(=O)CCCCCCC(C)CCCCCCCCCC (stereo unspecified) | > 100 µM (inactive) | > 100 µM (inactive) | > 100 µM (inactive) | > 100 µM (inactive) | > 100 µM (inactive) | > 100 µM (inactive) | > 100 µM (inactive) | > 100 µM (inactive) | > 100 µM (inactive) | – | > 100 µM (inactive) | – | – | – | – | – | – | – | – | –
18 | COc1cc(=O)oc(/C=C/C=O)c1C | 20.7 µM (inactive) | 14.3 µM (inactive) | 17.9 µM (inactive) | 18.8 µM (inactive) | 8.53 µM (inactive) | 17.9 µM (inactive) | 17.1 µM (inactive) | 19.5 µM (inactive) | 31.2 µM (inactive) | – | 2.79 µM (inactive) | – | – | – | – | – | – | – | – | –
19 | O=C1c2ccccc2C(=O)c2[nH]c(=O)c(/C=N/Nc3ccc([N+](=O)[O-])cc3)nc21 | 15.9 µM (inactive) | 7.24 µM (inactive) | 1.61 µM (inactive) | 6.04 µM (inactive) | > 43.6 µM (inactive) | 2.01 µM (inactive) | – | 2.28 µM (inactive) | 1.51 µM (inactive) | 1.8 µM (inactive) | 17.5 µM (inactive) | 3.22 µM (inactive) | > 47.2 µM (inactive) | 17.1 µM (inactive) | 9.38 µM (inactive) | 5.08 µM (inactive) | 11.3 µM (inactive) | 1.75 µM (inactive) | 1.81 µM (inactive) | 19.1 µM (inactive)
20 | Cc1c2oc3c(C)ccc(C(=O)NC4C(=O)NC(C(C)O)C(=O)N5CCCC5C(=O)N(C)CC(=O)N(C)C(C(C)C)C(=O)OC4C)c3nc-2c(C(=O)NC2C(=O)NC(C(C)O)C(=O)N3CCCC3C(=O)N(C)CC(=O)N(C)C(C(C)C)C(=O)OC2C)c(N)c1=O (stereo unspecified) (I: TTP[Sar][NMeV] / II: TTP[Sar][NMeV]; ester I:1-I:C, II:1-II:C; linker I:N-II:N via Actinocin(9to1); configuration not given here) | 0.136 µM (active) | 0.0904 µM (active) | 1.54 µM (inactive) | 0.0946 µM (active) | 0.0448 µM (active) | 0.811 µM (active) | – | 0.498 µM (active) | 0.0344 µM (active) | 0.413 µM (active) | < 0.01 µM (active) | 1.41 µM (inactive) | 0.184 µM (active) | 1.06 µM (active) | 0.0507 µM (active) | 0.0155 µM (active) | 3.76 µM (inactive) | 1.08 µM (active) | 1.32 µM (inactive) | > 100 µM (inactive)
21 | COc1c(CC(C)O)c2c3c(CC(C)O)c(OC)c(=O)c4c(O)cc5c(c6c(cc(O)c(c1=O)c62)OCO5)c43 (stereo unspecified) [CERCOSPORIN] | 2.66 µM (inactive) | 1.72 µM (inactive) | – | 1.27 µM (inactive) | 2 µM (inactive) | 1.29 µM (inactive) | 1.56 µM (inactive) | 1.99 µM (inactive) | 2.29 µM (inactive) | – | 1.37 µM (inactive) | – | – | – | – | – | – | – | – | –
